Data on 33 molecules can be found in US6414147B1, “2-amino-9-alkylpurines: GABA brain receptor ligands” (Neurogen Corporation, priority 1998, dated 2002).

What is called melting point is the temperature of the solid-liquid transition.

`COc1nc(Nc2ccccc2)nc2c1ncn2CCCO` [compound 21, 2-(Phenylamino)-6-methoxy-9-(3-hydroxypropyl)-9H-purine] had a melting point of 90 to 94 °C.

`CCCCCn1cnc2c(OCC)nc(Nc3ccccc3)nc21` [compound 22, 2-(Phenylamino)-6-ethoxy-9-pentyl-9H-purine] had a melting point of 174 to 176 °C.

The molecule `CCCCCCn1cnc2c(OC)nc(Nc3ccccc3)nc21` [compound 23, 2-(Phenylamino)-6-methoxy-9-hexyl-9H-purine] gave a melting point of 158 to 160 °C.

The molecule `COc1nc(Nc2ccccc2)nc2c1ncn2CCC(C)C` [compound 24, 2-(Phenylamino)-6-methoxy-9-(3-methylbutyl)-9H-purine] returned a melting point of 167 to 169 °C.

With `COc1nc(Nc2ccccc2)nc2c1ncn2Cc1ccccc1` [compound 25, 2-(Phenylamino)-6-methoxy-9-benzyl-9H-purine], the melting point was in the range of 165 to 167 °C.

`CCCCn1cnc2c(OC)nc(Nc3ccc(F)cc3)nc21` [compound 27, 2-[(4-Fluorophenyl)amino]-6-methoxy-9-butyl-9H-purine] showed a melting point of 185 to 187 °C.

For the molecule `CCCCn1cnc2c(OCCOC)nc(Nc3ccc(F)cc3)nc21` [compound 28, 2-[(4-Fluorophenyl)amino]-6-(2-methoxyethoxy)-9-butyl-9h-purine], the melting point fell in the range of 165 to 166 °C.

Consider `CCCCn1cnc2c(OCCOC(C)C)nc(Nc3ccc(F)cc3)nc21` [compound 29, 2-[(4-Fluorophenyl)amino]-6-(2-isopropoxyethoxy)-9-butyl-9H-purine], for which the melting point was in the range of 116 to 118 °C.

With `CCCCn1cnc2c(OCCOCCC)nc(Nc3ccc(F)cc3)nc21` [compound 30, 2-[(4-Fluorophenyl)amino]-6-(2-prop-1-oxyethoxy)-9-butyl-9H-purine], the melting point lay within 149 to 150 °C.

With `CCCCn1cnc2c(OCCCOCC)nc(Nc3ccc(F)cc3)nc21` [compound 31, 2-[(4-Fluorophenyl)amino]-6-(3-ethoxyprop-1-oxy)-9-butyl-9H-purine], the melting point lay in the range of 95 to 97 °C.

For the molecule `CCCCn1cnc2c(OCCC(C)C)nc(Nc3ccc(F)cc3)nc21` [compound 32, 2-[(4-Fluorophenyl)amino]-6-(3-methylbut-1-oxy)-9-butyl-9H-purine], the melting point lay in the range of 88 to 90 °C.

`CCCCn1cnc2c(Oc3ccccc3)nc(Nc3ccc(F)cc3)nc21` [compound 33, 2-[(4-Fluorophenyl)amino]-6-phenoxy-9-butyl-9H-purine] yielded a melting point of 171 to 172 °C.

Molecule `CCCCn1cnc2c(Oc3ccccc3F)nc(Nc3ccc(F)cc3)nc21` [compound 34, 2-[(4-Fluorophenyl)amino]-6-(2-fluorophenoxy)-9-butyl-9H-purine] displayed a melting point of 155 to 157 °C.

`CCCCn1cnc2c(Oc3cccc(OC)c3)nc(Nc3ccc(F)cc3)nc21` [compound 35, 2-[(4-Fluorophenyl)amino]-6-(3-methoxyphenoxy)-9-butyl-9H-purine] displayed a melting point of 185 to 187 °C.

As for `CCCCn1cnc2c(Oc3ccc(OCC)cc3)nc(Nc3ccc(F)cc3)nc21` [compound 36, 2-[(4-Fluorophenyl)amino]-6-(4-ethoxyphenoxy)-9-butyl-9H-purine], the melting point lay within 138 to 140 °C.

As for `CCCCn1cnc2c(Oc3cccnc3)nc(Nc3ccc(F)cc3)nc21.CS(=O)(=O)O` [compound 37, 2-[(4-Fluorophenyl)amino]-6-(pyrid-3-yloxy)-9-butyl-9H-purine methanesulfonate], the melting point is over 300 °C.

`CCCCn1cnc2c(OC)nc(Nc3ccc(OC)cc3)nc21` [compound 39, 2-[(4-Methoxyphenyl)amino]-6-methoxy-9-butyl-9H-purine] showed a melting point of 158 to 160 °C.

For `CCCCn1cnc2c(OC)nc(Nc3ccc(OCC)cc3)nc21` [compound 40, 2-[(4-Ethoxyphenyl)amino]-6-methoxy-9-butyl-9H-purine], the melting point lay in the range of 171 to 172 °C.

`CCCCn1cnc2c(OCC)nc(Nc3ccc(Cl)cc3)nc21` [compound 43, 2-[(4-Chlorophenyl)amino]-6-ethoxy-9-butyl-9H-purine]: the melting point was 164 °C.

In the case of `CCCCn1cnc2c(OC)nc(Nc3ccccc3OC)nc21` [compound 44, 2-[(2-Methoxyphenyl)amino]-6-methoxy-9-butyl-9H-purine], the melting point lay in the range of 101 to 103 °C.

Molecule `CCCCn1cnc2c(OC)nc(Nc3ccccc3OCC)nc21` [compound 45, 2-[(2-Ethoxyphenyl)amino]-6-methoxy-9-butyl-9H-purine] showed a melting point of 77 to 79 °C.

As to `CCCCn1cnc2c(OC)nc(Nc3ccccc3C)nc21` [compound 46, 2-[(2-Methylphenyl)amino]-6-methoxy-9-butyl-9H-purine], the melting point was in the range of 91 to 93 °C.

`CCCCn1cnc2c(OC)nc(Nc3ccc(OC)cc3OC)nc21` [compound 47, 2-[(2,4-Dimethoxyphenyl)amino]-6-methoxy-9-butyl-9H-purine]: the melting point lay within 104 to 106 °C.

As to `CCCCn1cnc2c(OCC)nc(Nc3ccc(OC)cc3OC)nc21` [compound 48, 2-[(2,4-Dimethoxyphenyl)amino]-6-ethoxy-9-butyl-9H-purine], the melting point lay in the range of 86 to 88 °C.

For `CCCCn1cnc2c(OCCOC)nc(Nc3ccc(OC)cc3OC)nc21` [compound 49, 2-[(2,4-Dimethoxyphenyl)amino]-6-(2-methoxyethoxy)-9-butyl-9H-purine], the melting point was 88 to 89 °C.

For `CCCCn1cnc2c(Oc3ccccc3)nc(Nc3ccc(OC)cc3OC)nc21` [compound 50, 2-[(2,4-Dimethoxyphenyl)amino]-6-phenoxy-9-butyl-9H-purine], the melting point lay within 129 to 131 °C.

`CCCCn1cnc2c(OCC)nc(Nc3ccc(C)cc3C)nc21` [compound 51, 2-[(2,4-Dimethylphenyl)amino]-6-ethoxy-9-butyl-9H-purine] displayed a melting point of 97 to 99 °C.

The molecule `CCCCn1cnc2c(OC)nc(Nc3ccc(OC)c(OC)c3)nc21` [compound 52, 2-[(3,4-Dimethoxyphenyl)amino]-6-methoxy-9-butyl-9H-purine] displayed a melting point of 160 to 162 °C.

The molecule `CCCCn1cnc2c(OC)nc(Nc3ccc(OC)c(F)c3)nc21` [compound 53, 2-[(3-Fluoro-4-methoxyphenyl)amino]-6-methoxy-9-butyl-9H-purine] displayed a melting point of 178 to 179 °C.

With `CCCCn1cnc2c(OCC)nc(Nc3ccc(OC(C)C)cc3F)nc21.CS(=O)(=O)O` [compound 54, 2-[(2-Fluoro-4-isopropoxyphenyl)amino]-6-ethoxy-9-butyl-9H-purine methane sulfonate], the melting point came out at 138 °C.

Molecule `CCCCn1cnc2c(OC)nc(Nc3ccc(OC)nc3)nc21` [compound 55, 2-[(2-Methoxypyrid-5-yl)amino]-6-methoxy-9-butyl-9H-purine] had a melting point of 171 to 172 °C.

`CCCCn1cnc2c(OCC)nc(Nc3ccc(OC)nc3)nc21` [compound 56, 2-[(2-Methoxypyrid-5-yl)amino]-6-ethoxy-9-butyl-9H-purine] came in with a melting point of 170 to 172 °C.

For `CCCCn1cnc2c(OCCOC)nc(Nc3ccc(OC)nc3)nc21` [compound 57, 2-[(2-Methoxypyrid-5-yl)amino]-6-(2-methoxyethoxy)-9-butyl-9H-purine], the melting point is 138 to 140 °C.
